Laboratory results from ChEMBL document CHEMBL1811875, “Inverse virtual screening of antitumor targets: pilot study on a small database of natural bioactive compounds” (J Nat Prod, 2011).

Legend:
NCI-H460 = experiment: Cytotoxicity against human H460 cells assessed as stimulation of topoisomerase 1-mediated DNA cleavage; assay type: functional, cell-based
DNA topoisomerase 1 = target: T1, DNA topoisomerase 1 (Homo sapiens, UniProt P11387); experiment: Binding affinity to topoisomerase 1
T1 sequence (P11387 whole entry): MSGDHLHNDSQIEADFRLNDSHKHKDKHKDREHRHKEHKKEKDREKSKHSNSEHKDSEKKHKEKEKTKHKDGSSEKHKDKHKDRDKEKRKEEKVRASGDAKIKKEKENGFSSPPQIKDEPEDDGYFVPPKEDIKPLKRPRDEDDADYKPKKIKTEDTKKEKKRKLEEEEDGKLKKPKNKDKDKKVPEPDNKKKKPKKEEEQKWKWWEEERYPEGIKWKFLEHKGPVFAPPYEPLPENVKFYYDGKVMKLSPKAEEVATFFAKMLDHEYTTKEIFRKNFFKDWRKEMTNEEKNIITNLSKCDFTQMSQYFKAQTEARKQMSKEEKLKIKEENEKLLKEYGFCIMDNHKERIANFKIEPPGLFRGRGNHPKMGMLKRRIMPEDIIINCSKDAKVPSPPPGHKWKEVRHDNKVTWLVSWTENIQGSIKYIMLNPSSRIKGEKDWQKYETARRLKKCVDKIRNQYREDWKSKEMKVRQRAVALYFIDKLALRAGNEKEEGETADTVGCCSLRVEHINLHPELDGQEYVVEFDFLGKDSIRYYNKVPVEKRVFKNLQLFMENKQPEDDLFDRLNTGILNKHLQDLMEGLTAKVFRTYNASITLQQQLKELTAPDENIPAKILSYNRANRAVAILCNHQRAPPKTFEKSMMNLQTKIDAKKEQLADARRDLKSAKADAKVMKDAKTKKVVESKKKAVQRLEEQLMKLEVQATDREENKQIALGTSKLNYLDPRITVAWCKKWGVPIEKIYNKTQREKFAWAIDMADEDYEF

Wee1-like protein kinase = Wee1-like protein kinase (Homo sapiens, UniProt P30291); experiment: Binding affinity to weel kinase
Chain of Wee1-like protein kinase (P30291 whole entry): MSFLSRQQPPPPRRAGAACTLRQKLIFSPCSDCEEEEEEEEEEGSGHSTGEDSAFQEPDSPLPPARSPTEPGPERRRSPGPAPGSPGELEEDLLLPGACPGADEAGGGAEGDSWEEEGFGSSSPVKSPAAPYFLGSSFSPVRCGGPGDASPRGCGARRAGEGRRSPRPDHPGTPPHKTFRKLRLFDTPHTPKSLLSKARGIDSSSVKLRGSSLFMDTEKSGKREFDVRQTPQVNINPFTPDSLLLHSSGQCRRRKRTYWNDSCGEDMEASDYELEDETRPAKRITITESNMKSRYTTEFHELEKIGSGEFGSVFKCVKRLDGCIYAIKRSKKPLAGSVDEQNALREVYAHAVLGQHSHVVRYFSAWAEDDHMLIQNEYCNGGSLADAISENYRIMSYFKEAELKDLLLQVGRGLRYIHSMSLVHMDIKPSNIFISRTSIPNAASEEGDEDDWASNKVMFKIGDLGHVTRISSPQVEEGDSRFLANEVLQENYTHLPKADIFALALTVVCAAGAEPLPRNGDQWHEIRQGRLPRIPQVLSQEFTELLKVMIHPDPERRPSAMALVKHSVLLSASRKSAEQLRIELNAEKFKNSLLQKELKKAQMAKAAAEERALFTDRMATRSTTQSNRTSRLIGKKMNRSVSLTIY

Row | SMILES | IC50 (NCI-H460) [nM] | Kd (DNA topoisomerase 1) [nM] | Kd (Wee1-like protein kinase) [nM]
1 | CC[C@@]1(O)C(=O)OCc2c1cc1n(c2=O)Cc2c-1nc1ccccc1c2/C=N/c1ccccc1C | 400 | 0.296 | –
2 | CC[C@@]1(O)C(=O)OCc2c1cc1n(c2=O)Cc2c-1nc1ccccc1c2/C=N\OCCCO | 400 | 2.65 | –
3 | Cc1cc(=O)c2c(O)cc3c(c2o1)C(=O)c1c(O)cc(O)cc1C3=O [TOPOPYRONE C] | – | – | 1.35
4 | CC[C@@]1(O)C(=O)OCc2c1cc1n(c2=O)Cc2cc3c(CN(C)C)c(O)ccc3nc2-1 [TOPOTECAN] | 1380 | – | –
